From patent US5580953A, “Amylin antagonist peptides and uses therefor” (Amylin Pharmaceuticals, Inc., priority 1991, dated 1996)
No end group written: not given here.

Legend:
[1] = system: insulin-stimulated glycogen synthesis in soleus muscle; test: rat soleus muscle assay; assay type: cell-based; conditions: for amylin agonist activity as measured by the soleus muscle assay: inhibition of insulin-stimulated glycogen synthesis; for amylin antagonist activity in the soleus muscle assay: resumption of insulin-stimulated glycogen synthesis in the presence of 100 nM rat amylin
From the text: Several assays have been developed to measure amylin activity and to evaluate new compounds. A receptor binding assay as described herein may be used to screen for or to identify compounds which bind to amylin receptors and which may, therefore, be candidate amylin agonists and antagonists. The rat soleus muscle assay may be used as a secondary procedure to screen for or to evaluate and differentiate between amylin agonists and amylin antagonists. In the soleus muscle assay, amylin and amylin agonists inhibit insulin-stimulated glycogenesis. Amylin antagonists counteract this amylin inhibition which results in the recovery of insulin-stimulated glycogenesis.
Assays of biological activity of amylin preparations in the soleus muscle are performed using previously described methods (Leighton, B. and Cooper, G. J. S. (1988) Nature 335: 632-635; Cooper, G. J. S., Leighton, B., Dimitriadis, G. D., Parry-Billings, M., Kowalchuk, J. M., Howland, K., Rothbard, J. B., Willis, A. C. and Reid, K. B. M. (1988) Proc. Natl. Acad. Sci. USA 85: 7763-7766.) In summary, amylin agonist activity is assessed by measuring the inhibition of insulin-stimulated glycogen synthesis in soleus muscle in response to an amylin agonist. Amylin antagonist activity is assessed by measuring the resumption of insulin-stimulated glycogen synthesis in the presence of 100 nM rat amylin and an amylin antagonist. Concentrations of peptide dissolved in carrier-free buffers are determined by quantitative amino acid analysis, as described therein. The ability of compounds to act as antagonists in this assay is determined by measuring IC50 values. Standard errors are determined by fitting of sigmoidal dose response curves using a four parameter logistic equation (De Lean, A., Munson, P. J., Guardabasso, V. and Rodbard, D. (1988) ALLFIT, Version 2.7, National Institute of Child Health and Human Development, N.I.H. Bethesda, Md., 1 diskette).

[2] = system: insulin resistance caused by administered amylin; test: infusion into rats, reversal of amylin-induced insulin resistance; assay type: in vivo; conditions: infusions into rats
From the text: A number of amylin antagonists have been characterized using these biological assays. The N-terminally deleted peptides ^8-37 Peptide A, ^8-37 Peptide B and ^8-32 Peptide C, were all found to compete with amylin in the receptor binding assay. […] ID. NO. 195]; ^9-37 Peptide B [SEQ. ID. NO. 27]; ^11-37 Peptide B [SEQ. ID. NO. 29]; ^18-37 Peptide B [SEQ. ID. NO. 36]; ^26 Asp^27 Val^29 Ala^8-32 Peptide C [SEQ. ID. NO. 196]; ^30 Asn^32 Tyr^8-32 Peptide C [SEQ. ID. NO. 197]; Ac-^9-32Peptide C [SEQ. ID. NO. 48]; Ac-^30 Asn^32 Tyr^9-32 Peptide C [SEQ. ID. NO. 198]; ^9-23 Peptide C^29-37 Peptide A [SEQ. ID. NO. 199]; Ac-^9-23 Peptide C^29-37 Peptide A; Adm-^9-23 Peptide C^29-37 Peptide A; Ac-^11 Arg^15 Leu^18 Arg^30 Asn^32 Tyr^9-32 Peptide C [SEQ. ID. NO. 200]; Ac-^11 Arg^18 Arg^30 Asn^32 Tyr^9-32 Peptide C [SEQ. ID. NO. 201]; Ac-^18 Arg^30 Asn^32 Tyr^9-32 Peptide C [SEQ. ID. NO. 202]. Infusions of ^8-37 Peptide B [SEQ. ID. NO. 26], ^8-32 Peptide C [SEQ. ID. NO. 47], and Ac-^11 Arg ^18 Arg^30 […] Tyr^9-32 Peptide C [SEQ. ID. NO.

Row | Substance | amylin agonist activity as measured by the soleus muscle assay [1] | amylin antagonist activity in the soleus muscle assay [1] | reversal of insulin resistance caused by administered amylin [2]
1 | VLGKLSQELHKLQTYPRTNTGSGTP-NH2 [^8-32 Peptide C] | negligible agonist activity | act as amylin antagonists | reverse the insulin resistance caused by administered amylin
2 | ^8-37 Peptide B (VTHRLAGLLSRSGGVVKNNFVPTNVGSKAF) [ID; NO; 26] | negligible agonist activity | act as amylin antagonists | reverse the insulin resistance caused by administered amylin
